Source: patent EP2649989B1, “Method for preparing a solid dispersion, solid dispersion obtained thereby and use thereof” (King Saud University, priority 2012, dated 2013)
Values after ≈ are worked out from the molar mass of the structure shown.

Experiment: Solubility in water according to the Higuchi-Connor method
Type: physicochemical
Settings: thermodynamic from solid; excess amount added to 10 ml of water, shaken on mechanical shaker for 48 hours, filtered, dissolved drug content; read-out: Indomethacin Solubility in water
Description: The solubility of the drug (indomethacin) and solid dispersions of the drug according to the invention was examined in water according to the Higuchi-Connor method, see "Advances in Analytical Chemical Chemistry and Instrumentation" Vol. 4, New York, Wiley-Interscience 1965, page 117-212. An excess amount of drug, comparative solid dispersions and inventive solid dispersions was added to 10 ml of water, separately. The dispersions were shaken on mechanical shaker for 48 hours. Afterwards, the samples were withdrawn, filtered, diluted and analyzed to calculate the dissolved drug content.

- solubility at 48 h: 152 µg/mL (≈ 425 µM)
SMILES: COc1ccc2c(c1)c(CC(=O)O)c(C)n2C(=O)c1ccc(Cl)cc1 [Indomethacin]
